The source of these data is ChEMBL document CHEMBL1154905, “The taiwaniaquinoids: a review” (J Nat Prod, 2010).

One experiment has as its system KB. Description: Cytotoxicity against human KB cells. Type of experiment: functional, cell-based.
Experiment [1] deals with human gammaherpesvirus 4. Description: Inhibition of TPA-induced EBV early antigen activation at 16 uM.
In experiment [2] the target is T1, Aromatase (Homo sapiens, UniProt P11511).
T1 sequence (P11511 whole entry): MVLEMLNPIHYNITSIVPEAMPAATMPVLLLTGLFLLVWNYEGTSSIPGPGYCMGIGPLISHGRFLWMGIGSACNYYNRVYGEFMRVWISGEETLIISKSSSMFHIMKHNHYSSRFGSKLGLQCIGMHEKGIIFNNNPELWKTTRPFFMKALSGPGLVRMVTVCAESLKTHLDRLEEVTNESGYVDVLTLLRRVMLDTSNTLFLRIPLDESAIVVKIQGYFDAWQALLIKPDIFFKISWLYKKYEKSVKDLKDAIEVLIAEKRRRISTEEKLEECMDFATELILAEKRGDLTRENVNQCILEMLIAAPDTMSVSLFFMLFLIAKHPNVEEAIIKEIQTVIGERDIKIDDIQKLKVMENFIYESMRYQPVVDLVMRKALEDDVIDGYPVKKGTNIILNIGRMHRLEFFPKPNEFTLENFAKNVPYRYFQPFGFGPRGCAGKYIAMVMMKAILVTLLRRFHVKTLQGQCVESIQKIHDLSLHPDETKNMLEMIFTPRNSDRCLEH
Description: Inhibition of human recombinant aromatase at 1 uM.

The test system of experiment [3] is human gammaherpesvirus 4. Description: Inhibition of TPA-induced EBV early antigen activation at 0.32 uM.
Experiment [4] has as its system human gammaherpesvirus 4. Description: Inhibition of TPA-induced EBV early antigen activation at 32 uM.
Experiment [5] has as its system human gammaherpesvirus 4. Description: Inhibition of TPA-induced EBV early antigen activation at 3.2 uM.
Experiment [6] addresses T1, Aromatase. Description: Inhibition of human recombinant aromatase at 0.6 uM.
In experiment [7] the target is T1, Aromatase. Description: Inhibition of human recombinant aromatase at 0.3 uM.
Experiment [8] deals with T1, Aromatase. Description: Inhibition of human recombinant aromatase at 10 uM.
Experiment [9] addresses T1, Aromatase. Description: Inhibition of human recombinant aromatase at 3 uM.

SMILES strings stand for the structures.

The term EC50 denotes the concentration giving half of the maximal effect. Low readings indicate higher potency in that assay, high ones lower potency in that assay. In turn, `COc1c(O)c2c(c(O)c1C(C)C)C(=O)[C@@H]1C(C)(C)CCC[C@]21C` [TAIWANIAQUINOL B] displayed a concentration giving a half-maximal response (EC50) in the experiment with KB greater than 10 µM.

Turning to `COC1=C(C(C)C)C(=O)C2=C(C1=O)[C@@]1(C)CCCC(C)(C)C1=C2` [TAIWANIAQUINONE H], in the experiment on KB, the concentration for a half-maximal effect (EC50) is greater than 10 µM.

Molecule `COc1c(O)c2c(c(O)c1C(C)C)[C@@H](C=O)[C@H]1C(C)(C)CCC[C@]21C` [TAIWANIAQUINOL C] displayed an EC50 with KB of 8.1 µM.

For `COc1c(O)c2c(c(O)c1C(C)C)C(=O)[C@@H]1C(C)(C)C(=O)CC[C@]21C` [TAIWANIAQUINOL F], the concentration for a half-maximal effect (EC50) in the experiment with KB was greater than 10 µM.

`CC(C)C1=C(O)C(=O)C2=C(C1=O)C(C=O)=C1C(C)(C)CCC[C@]21C` [TAIWANIAQUINONE D] came in with a half-maximal effective concentration (EC50) in the experiment on KB of 7.2 µM.

As usually defined, the inhibition is the relative decrease from the control value, in per cent. As to `CC(=O)Oc1c(C(C)C)cc(C=O)c2c1[C@H](OC(C)=O)[C@H]1C(C)(C)CCC[C@]21C` [STANDISHINAL DIACETATE], the inhibition in the experiment on human gammaherpesvirus 4 [1] was 30.5%; in the experiment with human gammaherpesvirus 4 [3], 0%; in the experiment on human gammaherpesvirus 4 [4], 84.5%; in the experiment with human gammaherpesvirus 4 [5] it was 11.1%. Also, on Aromatase [2], the inhibition at 1 µM turned out to be 38.6%.

As for `CC(C)c1cc(C=O)c2c(c1O)[C@H](O)[C@H]1C(C)(C)CCC[C@]21C`, the inhibition with human gammaherpesvirus 4 [1] worked out at 32%; with human gammaherpesvirus 4 [3], 0%; in the experiment with human gammaherpesvirus 4 [4], 85.9%; in the experiment with human gammaherpesvirus 4 [5], 16.7%.

In the experiment on KB, `COc1c(O)c2c(c(O)c1C(C)C)C(=O)[C@H]1C(C)(C)CCC[C@]21C` [TAIWANIAQUINOL E] registered an EC50 greater than 10 µM.

In turn, `COc1c(O)c2c(c(O)c1C(C)C)C(C=O)=C1C(C)(C)CCC[C@@]12C` [TAIWANIAQUINOL D] gave an EC50 in the experiment with KB of 3.5 µM.

In the case of `C[C@]12CCC(=O)C(O)=C1CC[C@@H]1[C@@H]2CC[C@]2(C)C(=O)CC[C@@H]12` [FORMESTANE], the inhibition at 0.6 µM at Aromatase [6] is 63.7%.

Regarding `CC[C@@H](C)CC[C@H]1[C@@H](C)CC[C@H]2C(C)(C)CCC[C@]12C`, the inhibition was 51.9% in the experiment on human gammaherpesvirus 4 [1], 4.5% in the experiment with human gammaherpesvirus 4 [3], 92.3% with human gammaherpesvirus 4 [4] and 22.2% in the experiment on human gammaherpesvirus 4 [5].

On to `CC1=C(/C=C/C(C)=C/C=C/C(C)=C/C=C/C=C(C)/C=C/C=C(C)/C=C/C2=C(C)CCCC2(C)C)C(C)(C)CCC1`, for which the inhibition in the experiment on human gammaherpesvirus 4 [1] worked out at 66%; in the experiment on human gammaherpesvirus 4 [3], 0%; in the experiment on human gammaherpesvirus 4 [4], 91%; with human gammaherpesvirus 4 [5], 18%.

Turning to `CC(C)C1=C(O)C(=O)C2=C(C1=O)[C@H](C=O)[C@H]1C(C)(C)CCC[C@]21C` [TAIWANIQUINONE A], the EC50 in the experiment with KB was determined as 6.9 µM.

In the case of `N#Cc1ccc(C(c2ccc(C#N)cc2)n2cncn2)cc1` [LETROZOLE], the inhibition at 0.3 µM at Aromatase [7] worked out at 81.7%. Also, on Aromatase [8], the inhibition at 10 µM worked out at 87.9%. For the same molecule, the inhibition at 3 µM on Aromatase [9] was determined as 87.5%.

As for `CC(=O)N1CCN(c2ccc(OCC3COC(Cn4ccnc4)(c4ccc(Cl)cc4Cl)O3)cc2)CC1` (configuration not stated) [KETOCONAZOLE], the inhibition at 0.3 µM at Aromatase [7] was found to be 89.3%. Moreover, at Aromatase [8], the inhibition at 10 µM was 92.5%. In addition, the inhibition at 3 µM at Aromatase [9] came out at 83.8%.

Take `COc1cc([C@@H]2c3cc4c(cc3[C@@H](O[C@@H]3O[C@@H]5CO[C@@H](C)O[C@H]5[C@H](O)[C@H]3O)[C@H]3COC(=O)[C@H]23)OCO4)cc(OC)c1O` [ETOPOSIDE]: a half-maximal effect in the experiment with KB (EC50) was put at 1.1 µM.

In the case of `COC1=C(C(C)C)C(=O)C2=C(C1=O)[C@@]1(C)CCCC(C)(C)[C@@H]1C2` [TAIWANIAQUINONE G], the 50% effective concentration (EC50) in the experiment on KB was greater than 10 µM.

`CC(C)c1c(O)c2c(c3c1OCO3)[C@@]1(C)CCCC(C)(C)[C@@H]1[C@H]2C=O` [TAIWANIAQUINOL A] returned a half-maximal effective concentration (EC50) in the experiment with KB of 8.3 µM.

In the experiment on KB, `COC1=C(C(C)C)C(=O)C2=C(C1=O)[C@@]1(C)CCCC(C)(C)[C@@H]1[C@H]2C=O` [TAIWANIAQUINONE] gave an EC50 of 4.4 µM.

The molecule `COC(=O)[C@H]1C2=C(C(=O)C(O)=C(C(C)C)C2=O)[C@@]2(C)CCCC(C)(C)[C@H]12` [TAIWANIQUINONE E] returned a concentration for a half-maximal effect (EC50) in the experiment with KB greater than 10 µM.
